# Test results as given in ChEMBL document CHEMBL1201862, “PubChem BioAssay data set” (2004).
# The source made the active and inactive calls.
# Assays:
# [1] = tested on: H9c2; assay: cells; type: functional, cell-based; conditions: Rattus norvegicus, H9c2, Myocardium;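 also: confirmatory concentration-response retest of ultra-high-throughput screening hits for modulation of myocardial damage; cell death induced by hydrogen peroxide oxidative stress; compound pretreatment for 60 min then peroxide exposure for 2 h; potency is for protecting the cells against peroxide damage rather than for killing them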
# [2] = HIV-1 AD8 envelope cell-cell fusion blockers – cherry-pick, dose response (AID 652062); type: functional, cell-based;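 also: luciferase signal from cell-cell fusion driven by HIV-1 clade B AD8 Env; potency is for inhibitors of fusion seen as a drop in luminescence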
# [3] = blockers of HIV-1 ZM109 envelope-driven cell-cell fusion – HeLa effector, CEM target cells, luciferase, cherry-pick, dose response (AID 652058); type: functional, cell-based;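 also: luciferase signal from HIV-1 Env mediated cell-cell fusion of effector and target cells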
# [4] = blockers of HIV-1 envelope-mediated cell-cell fusion – cherry-pick, dose response (AID 652057); type: functional, cell-based
# [5] = target: T1, Zinc finger protein mex-5 (Caenorhabditis elegans, UniProt Q9XUB2); assay: potency of MEX-5 RNA-binding blockers – biochemical, C. elegans, fluorescence polarization, dose response (AID 1960)
# T1 sequence (Q9XUB2 whole entry): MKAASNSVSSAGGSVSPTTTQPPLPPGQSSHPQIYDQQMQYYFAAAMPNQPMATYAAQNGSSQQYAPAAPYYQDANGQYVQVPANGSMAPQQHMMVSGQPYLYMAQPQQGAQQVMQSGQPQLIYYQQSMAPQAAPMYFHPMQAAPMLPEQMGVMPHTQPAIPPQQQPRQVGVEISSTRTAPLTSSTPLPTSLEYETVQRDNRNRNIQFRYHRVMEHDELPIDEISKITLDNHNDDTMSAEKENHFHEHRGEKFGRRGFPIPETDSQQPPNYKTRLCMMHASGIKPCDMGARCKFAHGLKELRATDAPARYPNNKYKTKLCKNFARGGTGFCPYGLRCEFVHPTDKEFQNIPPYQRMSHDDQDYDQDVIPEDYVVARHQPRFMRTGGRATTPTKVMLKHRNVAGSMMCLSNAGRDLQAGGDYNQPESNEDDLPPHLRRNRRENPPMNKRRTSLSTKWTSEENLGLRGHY
# [6] = target: T2, RNA-binding protein pos-1 (Caenorhabditis elegans, UniProt G5EF15); assay: disruptors of C. elegans POS-1 RNA interaction – biochemical, fluorescence polarization, dose response (AID 1964);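 also: purified POS-1 fused to maltose binding protein made in E. coli; potency of compounds blocking POS-1 binding to fluorescent RNA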
# T2 sequence (G5EF15 whole entry): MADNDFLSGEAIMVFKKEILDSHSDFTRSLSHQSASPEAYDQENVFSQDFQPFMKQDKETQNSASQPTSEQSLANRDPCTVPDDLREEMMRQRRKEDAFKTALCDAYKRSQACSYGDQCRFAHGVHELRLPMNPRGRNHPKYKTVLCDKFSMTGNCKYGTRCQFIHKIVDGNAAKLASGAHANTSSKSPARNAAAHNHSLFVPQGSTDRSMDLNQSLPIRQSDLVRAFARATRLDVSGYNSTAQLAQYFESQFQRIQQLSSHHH
# [7] = target: T3, Heat shock factor protein 1 (Mus musculus, UniProt P38532); assay: decrease of HSF1-responsive luciferase luminescence – cell-based, NIH3T3, dose retest, confirmation (AID 2382); type: functional;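 also: NIH3T3 fibroblasts with HSF1-driven luciferase reporter stressed by proteasome inhibitor MG132; luminescence from HSF1-driven luciferase expression after 8 hours of MG132 stress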
# T3 sequence (P38532 whole entry): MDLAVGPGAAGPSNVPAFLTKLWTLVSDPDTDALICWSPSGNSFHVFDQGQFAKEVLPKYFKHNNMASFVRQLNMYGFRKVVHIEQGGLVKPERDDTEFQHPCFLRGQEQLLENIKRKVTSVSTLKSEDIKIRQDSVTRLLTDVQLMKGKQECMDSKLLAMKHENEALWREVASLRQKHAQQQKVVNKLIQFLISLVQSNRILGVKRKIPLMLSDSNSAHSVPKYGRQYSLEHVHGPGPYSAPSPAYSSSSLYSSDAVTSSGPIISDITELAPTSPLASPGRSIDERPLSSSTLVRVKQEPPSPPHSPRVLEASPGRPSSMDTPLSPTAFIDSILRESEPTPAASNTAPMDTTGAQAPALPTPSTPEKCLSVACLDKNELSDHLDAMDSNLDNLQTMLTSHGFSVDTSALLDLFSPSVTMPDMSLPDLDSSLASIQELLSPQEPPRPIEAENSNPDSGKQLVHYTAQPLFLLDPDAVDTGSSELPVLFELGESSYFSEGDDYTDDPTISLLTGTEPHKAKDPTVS
# [8] = microbe, parasite or virus in culture; type: functional; conditions: Mycobacterium tuberculosis
# [9] = target: T4, Ubiquitin-conjugating enzyme E2 N (Homo sapiens, UniProt P61088); type: functional;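 also: Dose-response confirmation in a TR-FRET assay detecting UBC13-driven polyubiquitin chain formation, inhibition measured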
# T4 sequence (P61088 whole entry): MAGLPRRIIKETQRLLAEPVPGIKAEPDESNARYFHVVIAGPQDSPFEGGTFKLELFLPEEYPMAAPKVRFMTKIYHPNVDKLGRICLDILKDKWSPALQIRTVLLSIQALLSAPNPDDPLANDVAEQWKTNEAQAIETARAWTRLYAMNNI
# [10] = A Cell Based Secondary Assay To Explore Cytotoxicity of Compounds that Sensitize Mycobacterium Tuberculosis to Beta-Lactam Antibiotics.; type: functional
# [11] = target: Cytochrome P450 2C19 (Homo sapiens, UniProt P33261); assay: Cytochrome panel assay with activity outcomes. Panel member name: p450-cyp2c19 Compounds with AC50 equal or less than 10 uM are considered active; type: functional; conditions: read-out: AC50
# [12] = target: T5, Mannose-6-phosphate isomerase (Homo sapiens, UniProt P34949); assay: MPI inhibition at elevated mannose 6-phosphate – biochemical, fluorescence intensity, high mannose 6-phosphate, primary screen (AID 1220)
# T5 sequence (P34949 whole entry): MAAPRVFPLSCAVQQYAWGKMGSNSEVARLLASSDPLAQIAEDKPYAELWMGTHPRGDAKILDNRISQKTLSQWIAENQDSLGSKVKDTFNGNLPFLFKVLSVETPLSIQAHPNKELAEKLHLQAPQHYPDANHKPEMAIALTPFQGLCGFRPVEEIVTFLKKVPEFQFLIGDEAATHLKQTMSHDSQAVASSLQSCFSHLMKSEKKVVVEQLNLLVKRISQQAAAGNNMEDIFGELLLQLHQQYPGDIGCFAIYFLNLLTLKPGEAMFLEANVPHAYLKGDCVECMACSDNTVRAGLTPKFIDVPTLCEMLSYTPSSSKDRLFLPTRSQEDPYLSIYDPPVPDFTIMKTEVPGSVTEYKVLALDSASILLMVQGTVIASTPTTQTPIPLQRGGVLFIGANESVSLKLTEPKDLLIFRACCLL
# [13] = tested on: Streptococcus sp. 'group A'; assay: Streptococcus pyogenes SK(-)GAS viability under kanamycin – luminescence, BacTiterGlo, confirmation, counter-screen for streptokinase expression inhibitor project, dose response (AID 1900); type: functional, organism-based
# [14] = tested on: Streptococcus; assay: GAS UMAA2166 growth inhibition – luminescence, BacTiterGlo, counter-screen for streptokinase expression inhibitor project, dose response (AID 1915); type: functional, organism-based;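 also: potency for reduction of bacterial viability or growth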
# [15] = Luminescence Cell-Based Dose Confirmation HTS to Identify Inhibitors of Platelet Dense Granule Release. [Related pubchem assays: 1663 (Primary HTS), 1678 (Summary of Project)]; type: functional
# [16] = target: Luciferin 4-monooxygenase (Photinus pyralis, UniProt P08659); assay: inhibition of purified Photinus pyralis luciferase – biochemical, luminescence, dose response (AID 1891)
# [17] = target: T6, Streptokinase A (Streptococcus pyogenes serotype M1, UniProt P10520); assay: viability-normalized secreted streptokinase activity reduction – plasminogen activation absorbance, OD405, dose response (AID 1914); type: functional, Streptococcus pyogenes M1 GAS;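 also: secreted streptokinase activity via plasminogen activation per viability signal from cell pellet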
# T6 sequence (P10520 whole entry): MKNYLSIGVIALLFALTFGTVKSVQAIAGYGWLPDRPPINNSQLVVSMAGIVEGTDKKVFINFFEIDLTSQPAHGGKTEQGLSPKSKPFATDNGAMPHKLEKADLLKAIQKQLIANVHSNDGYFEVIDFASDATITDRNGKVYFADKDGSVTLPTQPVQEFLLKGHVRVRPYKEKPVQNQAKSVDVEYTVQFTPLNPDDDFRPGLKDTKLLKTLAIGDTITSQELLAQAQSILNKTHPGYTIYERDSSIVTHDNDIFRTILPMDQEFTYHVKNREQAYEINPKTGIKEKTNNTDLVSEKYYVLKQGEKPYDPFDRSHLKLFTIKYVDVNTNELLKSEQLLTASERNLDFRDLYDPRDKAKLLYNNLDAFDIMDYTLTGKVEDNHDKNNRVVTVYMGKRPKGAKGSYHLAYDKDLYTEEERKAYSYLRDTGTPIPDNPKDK
# [18] = P. falciparum Dd2 growth inhibitors, dose response, SYBR Green, cherry-picked samples (AID 1159567); type: functional, cell-based
# [19] = target: Paired box protein Pax-8 (Homo sapiens, UniProt Q06710); assay: PAX8 transcriptional activity inhibition in RMG-I – RMG-I cells, luciferase, cherry-pick, dose response (AID 687027); type: functional, cell-based;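 also: luciferase reporter driven by Pax8 target thyroperoxidase promoter measured by SteadyGlo luminescence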
# [20] = OVCAR-3 cell viability loss – plate reader, dry powder samples, PAX8 inhibitor project, dose response (AID 743044); type: functional, cell-based
# Paired box protein Pax-8, sequence (Q06710 whole entry): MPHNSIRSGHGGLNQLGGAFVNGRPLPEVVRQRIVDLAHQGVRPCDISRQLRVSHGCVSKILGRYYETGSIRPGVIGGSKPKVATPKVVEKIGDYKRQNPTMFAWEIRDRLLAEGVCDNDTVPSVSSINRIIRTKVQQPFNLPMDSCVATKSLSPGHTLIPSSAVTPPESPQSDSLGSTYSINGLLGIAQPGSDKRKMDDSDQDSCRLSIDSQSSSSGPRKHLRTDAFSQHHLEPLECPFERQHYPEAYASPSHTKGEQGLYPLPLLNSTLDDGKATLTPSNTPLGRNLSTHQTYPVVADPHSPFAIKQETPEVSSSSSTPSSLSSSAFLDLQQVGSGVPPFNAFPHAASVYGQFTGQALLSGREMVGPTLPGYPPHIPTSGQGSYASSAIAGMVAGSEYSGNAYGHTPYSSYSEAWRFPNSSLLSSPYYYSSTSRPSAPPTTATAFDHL
# Cytochrome P450 2C19, sequence (P33261 whole entry): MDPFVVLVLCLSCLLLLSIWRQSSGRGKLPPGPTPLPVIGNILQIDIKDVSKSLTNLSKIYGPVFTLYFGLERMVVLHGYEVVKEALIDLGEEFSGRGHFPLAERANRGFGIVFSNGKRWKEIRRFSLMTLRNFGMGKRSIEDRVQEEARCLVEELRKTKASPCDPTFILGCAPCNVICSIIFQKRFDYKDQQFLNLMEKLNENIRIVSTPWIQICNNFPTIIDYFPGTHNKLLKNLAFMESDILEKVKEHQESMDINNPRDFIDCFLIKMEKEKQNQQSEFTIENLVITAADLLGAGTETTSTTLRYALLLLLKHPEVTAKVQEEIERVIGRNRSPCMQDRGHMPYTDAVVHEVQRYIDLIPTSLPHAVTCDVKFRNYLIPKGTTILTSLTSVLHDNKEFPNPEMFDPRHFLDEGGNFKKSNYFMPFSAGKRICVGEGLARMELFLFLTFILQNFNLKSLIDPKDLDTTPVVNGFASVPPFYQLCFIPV
# Luciferin 4-monooxygenase, sequence (P08659 whole entry): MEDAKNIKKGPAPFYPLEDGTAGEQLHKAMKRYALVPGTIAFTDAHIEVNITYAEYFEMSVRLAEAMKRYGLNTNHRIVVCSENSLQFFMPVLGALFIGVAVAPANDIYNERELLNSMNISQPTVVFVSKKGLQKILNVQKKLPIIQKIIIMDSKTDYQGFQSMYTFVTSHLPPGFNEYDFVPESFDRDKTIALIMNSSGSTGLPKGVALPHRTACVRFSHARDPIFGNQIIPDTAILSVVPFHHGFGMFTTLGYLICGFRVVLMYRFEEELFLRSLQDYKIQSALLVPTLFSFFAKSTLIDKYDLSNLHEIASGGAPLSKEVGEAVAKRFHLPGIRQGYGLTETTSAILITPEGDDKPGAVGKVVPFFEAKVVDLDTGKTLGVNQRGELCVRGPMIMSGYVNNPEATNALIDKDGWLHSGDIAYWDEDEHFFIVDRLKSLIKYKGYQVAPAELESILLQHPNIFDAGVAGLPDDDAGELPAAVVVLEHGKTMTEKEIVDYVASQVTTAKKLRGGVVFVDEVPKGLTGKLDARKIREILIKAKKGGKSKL
structure (smiles),measurement,setting,value
COc1ccc(NC(=S)N(Cc2cccnc2)Cc2cc3cc(OC)c(OC)cc3nc2O)cc1,IC50,[1],> 79 µM (inactive)
C[C@H]1CN([C@@H](C)CO)C(=O)c2ccccc2-c2ccccc2CO[C@H]1CN(C)Cc1ccc(F)cc1,AC50,[2],0.857 µM (active)
same,AC50,[3],< 0.285 µM (active)
same,AC50,[4],< 0.285 µM (active)
Cc1ccc2[nH]c(O)c(N=Nc3ccccc3C)c2c1,EC50,[5],> 300 µM (not active)
same,EC50,[6],> 300 µM (not active)
same,EC50,[7],> 195 µM (not active)
CCOc1ccc2nc(NC(=O)C34CC5CC(CC(NC(C)=O)(C5)C3)C4)sc2c1,CC50,[8],> 40 µM (active)
CCN1C(N(C)CCc2c[nH]c3ccccc23)=N[C@@H](c2cccc(C(F)(F)F)c2)C(C(=O)OC)=C1C,IC50,[9],> 20 µM (inactive)
same,CC50,[8],14.3 µM (active)
C=CCSc1nnc(-c2cc3c(-c4ccccc4)nn(C)c3s2)n1C,CC50,[10],> 40 µM (active)
same,AC50,[11],17.8 µM (inconclusive)
COc1ccc(-c2cc(C(F)(F)F)nc(SCC(=O)Nc3sc4c(c3C#N)CCC4)n2)cc1,CC50,[10],> 40 µM (active)
Cc1ccc(NCc2nc3ccccc3n2CCOc2ccccc2)cc1,IC50,[12],> 50 µM (not active)
Cc1cc(NC(=O)/C=C/c2ccccc2Cl)n(-c2nc3ccccc3[nH]2)n1,EC50,[13],7.03 µM (active)
same,CC50,[10],14.5 µM (active)
same,EC50,[14],> 150 µM (not active)
same,EC50,[15],13.2 µM (active)
same,EC50,[16],3.94 µM (active)
same,EC50,[17],> 150 µM (not active)
COc1cccc(-c2ccc([C@@H]3[C@H](CO)N4CCCCN(C(=O)c5ccc(F)cc5)C[C@@H]34)cc2)c1,AC50,[18],5.39 µM (active)
O=C(Cc1ccccc1)N1CC[C@H]2[C@H](CO)Nc3ccc(C4=CCCCC4)cc3[C@H]21,AC50,[19],6.67 µM (active)
same,AC50,[20],51.3 µM (active)
Cc1c(C(=O)NC(=S)Nc2ccccc2N2CCCC2)cccc1[N+](=O)[O-],CC50,[10],> 40 µM (active)
Oc1nc(-c2cccnc2)nc2ccccc12,IC50,[1],12.8 µM (active)
CCOC(=O)c1c(C)[nH]c(C)c1C(=O)COC(=O)/C=C/c1ccc(OC(F)F)cc1,CC50,[10],> 40 µM (active)
O=C(Nc1cccc2cccnc12)c1ccc2sc([C@H]3C[C@H](O)[C@@H](CO)O3)nc2c1,IC50,[1],11 µM (active)
O=C(NNC(=O)c1ccccc1O)c1ccc(S(=O)(=O)Nc2ccccc2F)cc1,EC50,[5],> 300 µM (inconclusive)
same,EC50,[6],> 300 µM (not active)
O=[N+]([O-])c1ccc(-c2nc(Nc3ccc(O)cc3)c3ccccc3n2)cc1,IC50,[1],> 79 µM (inactive)
